Experimental data taken from patent US10258692B2, “Oral pharmaceutical formulation of BCS class III molecules” (ETHYPHARM, priority 2012, dated 2019).
≈ marks a conversion by molar mass, not a printed value. Read-outs that look alike come from different tables or passages of the source.

Assays:
[1] = Physicochemical characteristics of baclofen (internal report)
Method: Baclofen (FIG. 1) is a BCS class III molecule.
The transport mechanism of baclofen (Merino, et al., 1989) is active transport by means of transporters but these are saturated at high dose. Not knowing the transporter composition of the Caco-2 cells, it is sought to have a high concentration of baclofen in the formulas so that the transporters that are present are saturated. Therefore only the increase in paracellular transport was evaluated. The saturation concentration of baclofen in water is 3 mg/ml (internal pre-formulation report). However, its solubility is highly dependent on pH as indicated by the amine and carboxylic functions present on the molecule. Therefore the addition of 0.01 M fumaric acid shown to be compatible with baclofen by the internal pre-formulation report, allows the solubility of baclofen to be increased twofold to 6 mg/ml. The pH is then 3.88.

[2] = Baclofen solubility assays (visual method); assay type: physicochemical; settings: for solubility at 24 h: thermodynamic from solid
Method: Beforehand it is important to determine the solubility of the active ingredient in the excipients to be evaluated. For the purpose of cell assays, it is important that the active ingredient should be in molecular form to obtain cross-membrane transport. Solubility was determined via visual method by adding exactly weighed quantities of baclofen to the selected excipients, after being left under agitation for 24 h. First the solubility of baclofen at ambient temperature in Labrasol®, Miglyol® 810 and Captex® 355 was determined. The solubility of baclofen in Gélucire® 50/13 was determined after melting the excipient at a temperature higher than 50° C. and placing thereof in a thermostat-controlled oven at 60° C. At a second step, to increase the solubility of baclofen in an aqueous medium, this solubility was determined in an acidified solution of 0.01 M fumaric acid.
The solubility values indicated in Table 7 below were determined in relation to visual observation of particles in the media.

[3] = Permeability assay on Caco-2 cells (apparent permeability); assay type: in vitro ADME, human; settings: human
Description: (§1) The Caco-2 cells are derived from the culture of human cells of cancerous origin capable of differentiating in the presence of a suitable culture medium (Pontier, 1997-1998). Their properties are a function of the number of subcultures to which they are subjected. […] The brush-border is differentiated and developed with very tight junctions of 10 to 50 Å (narrower than those of the small intestine). From a biochemical viewpoint, Caco-2 cells also express the enzymes of the enterocytes. In addition, numerous transporters are present but their expression is lower than the levels found in vivo and the P-gp efflux pump is over-expressed which may underestimate absorption compared with in vivo.
(§2) The Caco-2 cells were placed in culture and differentiated over 21 to 30 days. They were subjected to a number of subcultures of less than 110. The culture medium was DMEM (Dulbecco's Modified Eagle Medium) supplemented with inactivated 10% foetal calf serum, with 1% non-essential amino acids and antibiotics.
(§3) The Caco-2 cells allowed evaluation of the potential of eight formulas given in Tables 5a, 5b, 5c and 5d, for improvement in the apparent permeability of baclofen. The dilutions are those chosen by the subcontractor as a function of baclofen concentration measured by the assay technique and as a function of the […] non-toxic concentration given by preliminary toxicity studies.
(§4) Samples were taken after the placing the test specimen in the apical medium: at T5 minutes and T125 minutes in the donor compartment and at T65 minutes and T125 minutes in the receiver compartment. […]
(§5) The apparent permeability of baclofen and the recovery ratio were calculated as follows: Papp=[ΔQ/(Δt×A)]/C0 where Papp=apparent permeability (cm·s^−1) • ΔQ=difference in amount of baclofen measured between the two samplings • Δt=time interval between the two samplings • A=exposure surface area (cm^2) • C0=initial concentration deposited in the donor compartment.
(§6) Each assay was performed three times. For the validity of the assay, the permeability of a reference compound was also measured as positive control. […]

Caco-2 cells [4] = assay: as above; assay type: in vitro ADME, human; settings: Caco-2, apical pH 6.8 to basolateral pH 7.4; listed as non-formulated baclofen
Description: as §1, §2, §3, §4, §5, §6

[5] = Benet, et al., 2011; cited from earlier work
Caco-2 cells [6] = assay: Lucifer Yellow test (paracellular transport, tight junctions); assay type: cell-based, human
Description: Lucifer yellow (LY) is a marker of paracellular transport (Buyukorturk, et al., 2010). Its measurement in the receiver compartment during the permeability assay allows observation of the opening of the tight junctions. Measurement can also be performed after the assay to evaluate cell integrity (Nollevaux, et al., 2006). The apparent permeability of Lucifer Yellow under normal conditions is […] (Oroxcell, 2011).
Throughout the assays the crossing of Lucifer Yellow from the apical to the basolateral compartment, a marker of paracellular transport, was also evaluated. 200 μM of Lucifer Yellow was co-incubated with the test compound and its permeability evaluated in the same manner as for the latter. Concentrations were measured by fluorescence in both compartments at the start and at the end of the assay.

With `NCC(CC(=O)O)c1ccc(Cl)cc1` (stereo not drawn) [baclofen, Baclofen] the logP [1] was -1, the “pH of a saturated solution” value [1] was 6.5 and the pKa1 [1] was “pKa1 = 3.87”. For the same molecule, the pKa2 [1] was “pKa2 = 9.62”, the Solubility ([1]; 0.1N HCl, 0.1N NaOH) was “Soluble: 0.1N HCl, 0.1N NaOH” and the Solubility ([1]; Ethanol, Methanol) was “Very slightly soluble: Ethanol, Methanol”. The Solubility ([1]; water, read-out: Solubility (saturation concentration) in water) was 3000 µg/mL (≈ 14 mM), the “pH of the baclofen solution” value ([2]; 6 mg/ml baclofen in 0.01 M fumaric acid) was 3.88 and the solubility at 24 h ([2]; 0.01 M fumaric acid aqueous solution, pH 3.88, aqueous buffer, in 0.01M fumaric acid aqueous medium, ambient, read-out: Solubility of baclofen) was 6000 to 7000 µg/mL (≈ 28.1 to 32.8 mM). The solubility at 24 h ([2]; Gélucire 50/13 (molten), oil or lipid, in Gélucire ® 50/13, 60° C., read-out: Solubility of baclofen) was 500 to 1000 µg/mL (≈ 2.34 to 4.68 mM), the solubility in words ([2]; aqueous medium) was “soluble” and the solubility at 24 h ([2]; liquid absorption enhancers, oil or lipid, read-out: solubility of the active ingredient in the liquid absorption enhancers) was under 1000 µg/mL. The solubility in words ([2]; oil excipients) was “practically insoluble”, the solubility at 24 h ([2]; oil or lipid, in Captex ® 355, ambient, read-out: Solubility of baclofen) was under 100 µg/mL and the solubility at 24 h ([2]; oil or lipid, in Labrasol ®, ambient, read-out: Solubility of baclofen) was 200 to 400 µg/mL (≈ 0.936 to 1.87 mM). The solubility at 24 h ([2]; oil or lipid, in Miglyol ® 810, ambient, read-out: Solubility of baclofen) was under 100 µg/mL, the Papp A→B at 125 min ([3]; Caco-2, Caco-2, apical pH 6.8 to basolateral pH 7.4, read-out: apparent permeability of baclofen) was under 0.3 ×10⁻⁶ cm/s and the “apparent permeability of baclofen” value (Caco-2 cells [4]) was “lower than 0.5×10^−6 cm/s”. For the same molecule, the “log P” value [5] was −0.96.
With `COCCc1ccc(OCC(O)CNC(C)C)cc1` (stereo not drawn) [metoprolol] the Papp A→B at 125 min, 20 μM ([3]; Caco-2, 20 μM metoprolol, positive control) was over 6 ×10⁻⁶ cm/s and the “opening of the tight junctions, in words” value (Caco-2 cells [6]) was “lack of effect”.
